Data from ChEMBL document CHEMBL4130449, “Bioactive Seco-Lanostane-Type Triterpenoids from the Roots of Leplaea mayombensis” (J Nat Prod, 2017).

These compounds were tested on MDA-MB-231 (assay: Cytotoxicity against human MDA-MB-231 cells after 3 days by Celltiter-Glo assay). Conditions: MDA-MB-231, 72 h.
Assay type: functional, cell-based

Row | Structure (SMILES) | IC50 [µM]
1 | C=C(C)[C@H]1CC=C2[C@@H](CC[C@]3(C)[C@@H]([C@@H](CCC=C(C)C)C(=O)O)CC[C@@]23C)[C@]1(C)CCC(=O)OC | 55
2 | C=C(C)[C@H]1CC=C2[C@@H](CC[C@]3(C)[C@@H]([C@@H](CCC=C(C)C)C(=O)O)CC[C@@]23C)[C@]1(C)CCC(=O)NCc1ccc(Br)cc1 | 140
3 | C=C(C)[C@H]1CC=C2[C@@H](CC[C@]3(C)[C@@H]([C@@H](CCC=C(C)C)C(=O)O)CC[C@@]23C)[C@]1(C)CCC(=O)O | 127
4 | C=C(C)[C@H]1CC=C2[C@@H](CC[C@]3(C)[C@@H]([C@@H](CCC=C(C)C)C(=O)OC)CC[C@@]23C)[C@]1(C)CCC(=O)OC | 63.5
5 | CC[C@H](/C=C/[C@@H](C)[C@H]1CC[C@H]2[C@@H]3CC=C4C[C@@H](O)CC[C@]4(C)[C@H]3CC[C@]12C)C(C)C [STIGMASTEROL] | 564
